We go through 40 molecules from the supplement of paper PMC12137928.

The subject of the assay is HCT116. Particulars: 72 h. Summed up: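 Luminescence was read with CellTiter-Glo in HCT116 cells seeded at 250 per well in 1536-well plates. Signals were scaled between vehicle at 0% and positive control at -100%, then pattern-corrected. IC50 and maximal efficacy were obtained by fitting a four-parameter Hill equation.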

Counter-ions that a name gives are not always drawn.

As to `CCCCCCCCCCCCCCCC(=O)OC[C@@H](NC(=O)C(Cl)Cl)[C@H](O)c1ccc([N+](=O)[O-])cc1` [Chloramphenicol palmitate], the IC50 cell viability is more than 45.8 µM (ICRF193 0 nM) and more than 45.8 µM (ICRF193 200 nM).
For the molecule `C/C(=C(\CCOC(=O)c1ccccc1)SS/C(CCOC(=O)c1ccccc1)=C(/C)N(C=O)Cc1cnc(C)nc1N)N(C=O)Cc1cnc(C)nc1N` [Bisbentiamine], the IC50 cell viability was more than 45.8 µM (ICRF193 0 nM) and more than 45.8 µM (ICRF193 200 nM).
Turning to `C=C1/C(=C\C=C2/CCC[C@]3(C)[C@@H]([C@H](C)CCCC(C)(C)O)CC[C@@H]23)C[C@@H](O)[C@@H](OCCCO)[C@@H]1O` [Eldecalcitol], the IC50 cell viability is more than 45.8 µM (ICRF193 0 nM) and more than 45.8 µM (ICRF193 200 nM).
On to `O=C1CCC(N2C(=O)c3ccccc3C2=O)C(=O)N1` (stereo not given) [Thalidomide], for which the IC50 cell viability by setting is: (ICRF193 0 nM) more than 45.8 µM; (ICRF193 200 nM) more than 45.8 µM.
As to `COC(=O)c1ccc(O)cc1` [Methylparaben], the IC50 cell viability is more than 45.8 µM (ICRF193 0 nM) and more than 45.8 µM (ICRF193 200 nM).
Consider `CC(=O)N(CC(O)CO)c1c(I)c(C(=O)NCC(O)CO)c(I)c(C(=O)NCC(O)CO)c1I` (stereo not given) [Iohexol], for which the IC50 cell viability runs as follows: (ICRF193 0 nM) more than 45.8 µM; (ICRF193 200 nM) more than 45.8 µM.
For the molecule `O=C1Cc2cc(CCN3CCN(c4nsc5ccccc45)CC3)c(Cl)cc2N1` [Ziprasidone], the IC50 cell viability reads like this: (ICRF193 0 nM) more than 45.8 µM; (ICRF193 200 nM) more than 45.8 µM.
Regarding `Cc1ccc(C(=O)c2ccc(CC(=O)O)n2C)cc1` [Tolmetin sodium dihydrate], the IC50 cell viability reads like this: (ICRF193 0 nM) more than 45.8 µM; (ICRF193 200 nM) more than 45.8 µM.
Regarding `CN(C)CC[C@@H](c1ccc(Cl)cc1)c1ccccn1` [Dexchlorpheniramine hydrochloride], the IC50 cell viability by setting is: (ICRF193 0 nM) more than 45.8 µM; (ICRF193 200 nM) more than 45.8 µM.
Turning to `CCCCOc1cc(C(=O)NCCN(CC)CC)c2ccccc2n1` [Dibucaine], the IC50 cell viability runs as follows: (ICRF193 0 nM) more than 45.8 µM; (ICRF193 200 nM) more than 45.8 µM.
`NC12CC3CC(CC(C3)C1)C2` [Amantadine hydrochloride]: the IC50 cell viability is more than 45.8 µM (ICRF193 0 nM) and more than 45.8 µM (ICRF193 200 nM).
For the molecule `NCCS` [Cysteamine hydrochloride], the IC50 cell viability was more than 45.8 µM (ICRF193 0 nM) and more than 45.8 µM (ICRF193 200 nM).
As to `C[N+](C)(CCOc1ccccc1)Cc1cccs1` [Dimethyl(2-phenoxyethyl)-2-thenylammonium iodide], the IC50 cell viability is, setting by setting: (ICRF193 0 nM) more than 45.8 µM; (ICRF193 200 nM) more than 45.8 µM.
The molecule `CNCc1ccc(-c2[nH]c3cc(F)cc4c3c2CCNC4=O)cc1` [Rucaparib] displayed an IC50 cell viability (ICRF193 0 nM) of more than 45.8 µM and an IC50 cell viability (ICRF193 200 nM) of more than 45.8 µM.
The molecule `C#C[C@]1(O)CC[C@H]2[C@@H]3CCC4=CC(=O)CC[C@@H]4[C@H]3CC[C@@]21C` [Norethindrone] had an IC50 cell viability (ICRF193 0 nM) of more than 45.8 µM and an IC50 cell viability (ICRF193 200 nM) of more than 45.8 µM.
Regarding `CC(CC(C(N)=O)(c1ccccc1)c1ccccc1)N(C)C` (stereo not given) [Aminopentamide sulfate], the IC50 cell viability reads like this: (ICRF193 0 nM) more than 45.8 µM; (ICRF193 200 nM) more than 45.8 µM.
Regarding `COc1ccc(CC(C)NCC(O)c2ccc(O)c(NC=O)c2)cc1` (stereo not given) [Formoterol hemifumarate], the IC50 cell viability runs as follows: (ICRF193 0 nM) more than 45.8 µM; (ICRF193 200 nM) more than 45.8 µM.
On to `N[C@@H](CSSC[C@H](N)C(=O)O)C(=O)O` [L-Cystine], for which the IC50 cell viability reads like this: (ICRF193 0 nM) more than 45.8 µM; (ICRF193 200 nM) more than 45.8 µM.
`CC[C@H]1OC(=O)C[C@@H](O)[C@H](C)[C@@H](O[C@@H]2O[C@H](C)[C@@H](O[C@H]3C[C@@](C)(O)[C@@H](O)[C@H](C)O3)[C@H](N(C)C)[C@H]2O)[C@@H](CC=O)C[C@@H](C)C(=O)/C=C/C(C)=C/[C@@H]1CO[C@@H]1O[C@H](C)[C@@H](O)[C@@H](OC)[C@H]1OC` [TYLOSIN TARTRATE]: the IC50 cell viability runs as follows: (ICRF193 0 nM) more than 45.8 µM; (ICRF193 200 nM) more than 45.8 µM.
As for `CCCc1ncc(C[n+]2ccccc2C)c(N)n1` [Amprolium hydrochloride], the IC50 cell viability was more than 45.8 µM (ICRF193 0 nM) and more than 45.8 µM (ICRF193 200 nM).
Turning to `CN1CCCN=C1/C=C/c1cccc(O)c1` [OXANTEL PAMOATE], the IC50 cell viability was more than 45.8 µM (ICRF193 0 nM) and more than 45.8 µM (ICRF193 200 nM).
On to `CCN(CCO)CCCC(C)Nc1ccnc2cc(Cl)ccc12` (stereo not given) [Hydroxychloroquine sulfate], for which the IC50 cell viability by setting is: (ICRF193 0 nM) more than 45.8 µM; (ICRF193 200 nM) more than 45.8 µM.
With `CC(=O)OCC(=O)[C@@]1(O)[C@H](C)C[C@H]2[C@@H]3C[C@H](F)C4=CC(=O)C=C[C@]4(C)[C@@]3(F)[C@@H](O)C[C@@]21C` [Flumethasone acetate], the IC50 cell viability is, setting by setting: (ICRF193 0 nM) more than 45.8 µM; (ICRF193 200 nM) more than 45.8 µM.
With `CNC1(C)C2CCC(C2)C1(C)C` (stereo not given) [Mecamylamine], the IC50 cell viability runs as follows: (ICRF193 0 nM) more than 45.8 µM; (ICRF193 200 nM) more than 45.8 µM.
`CNC(C)CC1CCCC1` (stereo not given) [Cyclopentamine hydrochloride]: the IC50 cell viability runs as follows: (ICRF193 0 nM) more than 45.8 µM; (ICRF193 200 nM) more than 45.8 µM.
Regarding `OCCN1C[C@H](O)[C@@H](O)[C@H](O)[C@H]1CO` [Miglitol], the IC50 cell viability is, setting by setting: (ICRF193 0 nM) more than 45.8 µM; (ICRF193 200 nM) more than 45.8 µM.
In turn, `OCCN(CCO)CCO` [Triethanolamine] had an IC50 cell viability (ICRF193 0 nM) of more than 45.8 µM and an IC50 cell viability (ICRF193 200 nM) of more than 45.8 µM.
Molecule `Cn1c(=O)cc(N2CCC[C@@H](N)C2)n(Cc2cc(F)ccc2C#N)c1=O` [Trelagliptin succinate] returned an IC50 cell viability (ICRF193 0 nM) of more than 45.8 µM and an IC50 cell viability (ICRF193 200 nM) of more than 45.8 µM.
In the case of `CC(C)C(=O)Nc1cccc(C2CN3CCSC3=N2)c1` (stereo not given) [Butamisole], the IC50 cell viability reads like this: (ICRF193 0 nM) more than 45.8 µM; (ICRF193 200 nM) more than 45.8 µM.
With `C[N+](C)(C)CCOC(N)=O` [Carbachol], the IC50 cell viability reads like this: (ICRF193 0 nM) more than 45.8 µM; (ICRF193 200 nM) more than 45.8 µM.
In the case of `CN1CCC[C@@H]1Cc1c[nH]c2ccc(CCS(=O)(=O)c3ccccc3)cc12` [Eletriptan], the IC50 cell viability was more than 45.8 µM (ICRF193 0 nM) and more than 45.8 µM (ICRF193 200 nM).
Consider `CCOC(=O)c1ncn2c1CN(C)C(=O)c1cc(F)ccc1-2` [Flumazenil], for which the IC50 cell viability reads like this: (ICRF193 0 nM) more than 45.8 µM; (ICRF193 200 nM) more than 45.8 µM.
As for `CN(C)C(=O)Oc1cccc([N+](C)(C)C)c1` [Neostigmine bromide], the IC50 cell viability is, setting by setting: (ICRF193 0 nM) more than 45.8 µM; (ICRF193 200 nM) more than 45.8 µM.
`O=C(O)CN(CCN(CC(=O)O)CC(=O)O)CCN(CC(=O)O)CC(=O)O` [Pentetic acid] displayed an IC50 cell viability (ICRF193 0 nM) of more than 45.8 µM and an IC50 cell viability (ICRF193 200 nM) of more than 45.8 µM.
On to `NCCC[C@H](N)C(=O)O` [ORNITHINE HYDROCHLORIDE], for which the IC50 cell viability is, setting by setting: (ICRF193 0 nM) more than 45.8 µM; (ICRF193 200 nM) more than 45.8 µM.
As to `CC1=C(C/C=C(\C)CCC[C@H](C)CCC[C@H](C)CCCC(C)C)C(=O)c2ccccc2C1=O` [Phytonadione], the IC50 cell viability runs as follows: (ICRF193 0 nM) more than 45.8 µM; (ICRF193 200 nM) more than 45.8 µM.
On to `O=C1c2cccc3c2[C@H](CCC3)CN1[C@@H]1CN2CCC1CC2` [Palonosetron hydrochloride], for which the IC50 cell viability runs as follows: (ICRF193 0 nM) more than 45.8 µM; (ICRF193 200 nM) more than 45.8 µM.
Consider `CC(=O)N[C@@H](CS)C(=O)O` [Acetylcysteine], for which the IC50 cell viability is more than 45.8 µM (ICRF193 0 nM) and more than 45.8 µM (ICRF193 200 nM).
For the molecule `CCCN(CC)C(CC)C(=O)Nc1c(C)cccc1C` (stereo not given) [Etidocaine], the IC50 cell viability was more than 45.8 µM (ICRF193 0 nM) and more than 45.8 µM (ICRF193 200 nM).
On to `CCc1cccc2c3c([nH]c12)C(CC)(CC(=O)O)OCC3` (stereo not given) [Etodolac], for which the IC50 cell viability was more than 45.8 µM (ICRF193 0 nM) and more than 45.8 µM (ICRF193 200 nM).
